Measurements reported in patent US20250302974A1, “LECTIN-DRUG CONJUGATES” (UNICHEM LABORATORIES LIMITED, priority 2021, published 2025).
Square brackets hold non-standard residues; d marks the D form. Peptide text beside a SMILES is read from it. * marks the point of attachment. Dolaproine = CO[C@@H]([C@@H]1CCCN1)[C@@H](C)C(=O)O; Dil = CC[C@H](C)[C@H](NC)[C@@H](CC(=O)O)OC; X1 = C[C@@H](N*)[C@@H](O)c1ccccc1; NMeV = CN[C@H](C(=O)O)C(C)C

What was measured:
[1] = system: T-24 cells; experiment: Cytotoxicity (cell titer glo, 72 h) human urinary bladder cancer cell line T-24; format: cell-based; settings: T-24 cell line
Experimental: (§1) T-24 Cell line were cultured in McCoy's 5a Medium Modified supplemented with 10% FBS and the PA-1 Cell line was cultured in EMEM Media supplemented with 10% FBS. The assay was performed by plating 5,000 cells/well and incubated at 37° C. overnight. […] Each concentration was added in triplicate and media-only wells used as a control. After incubation for 72 h cell titer glow (Promega) reagent (50 μL) was added to each well and the plates shaken for 5 mins and the luminescence was recorded. Percent viability was determined by dividing luminescence of the treated well by the non-treated well and multiplying by 100. Data was analysed using non-linear regression with a logarithmic scale.
(§2) 5,000 cells/well were plated and incubated at 37° C. overnight. Conjugates/vehicle control dilutions were made in respective media and added to cells. Volume added: 50 uL to each well. […] Each concentration was analysed in triplicates. […] Cell titer glow reagent (volume: 50 uL) was added to each well, the plate was shaken for 5 mins and the luminescence was recorded. […] Percent viability was calculated by dividing the luminescence signal obtained for each treated well by the untreated well (media-only control) and multiplying by 100.

[2] = system: PA-1 cells; experiment: Cytotoxicity (cell titer glo, 72 h) ovarian cancer cell line PA-1; format: cell-based; settings: Homo sapiens, PA-1 cell line
Experimental: as §1, §2

[3] = system: PANC-1 cells; experiment: MTT cytotoxicity assay, PANC-1 pancreatic; format: cell-based; settings: Homo sapiens
Experimental: (§3) The Untreated cells were used as Control. […] Cells were incubated for 3 h at 37° C. The supernatant was aspirated.
(§4) The % Cytotoxicity was calculated using the formula: […]
(§5) Selectivity Index was calculated using the formula:
(§6) SI=IC50 in Normal cell/IC50 in cancer cell.

[4] = system: T24 cells; experiment: MTT cytotoxicity assay, T24 bladder; format: cell-based; settings: Homo sapiens, T-24
Experimental: as §3, §4, §5, §6

[5] = system: PA-1 Ovary; experiment: Cytotoxic effect by MTT assay, 48 h; settings: for Percent cytotoxicity wrt control: 48 h
Experimental: (§7) Cells were treated with Test Items at various concentrations (0.0001 μM-10 μM) for 48 h. The cells corresponding to Positive Control group were treated with Doxorubicin at a concentration ranging from 0.1 μM-100 μM. The Untreated cells were used as Control. After 48 h of incubation, the effect of Test Items on cytotoxicity of cells was determined by MTT assay, the plates were taken out and 20 μl of 5 mg/m1 of MTT 3-(4,5-dimethythiazol-2-yl)-2,5-diphenyl tetrazolium bromide solution was added to all the wells. Cells were incubated for 3 h at 37° C. The supernatant was aspirated. 150 μl of DMSO was added to each well to dissolve formazan crystals. The absorbance of each well was then read at 540 nm using Synergy HT micro plate reader.
(§8) The % Cytotoxicity was calculated using the formula:
(§9) Where, X=Absorbance of cells treated with Test Item; R=Absorbance of Control cells (Untreated cells maintained in growth medium only).
as §5, §6
(§10) Activity scores of the Selective Index values were categorized as: • Not selective (SI value ≤1) • Moderately selective (1<SI value <5) • Selective (SI value ≥5)

[6] = system: KB Cervix; experiment: Cytotoxic effect by MTT assay, 48 h; settings: for Percent cytotoxicity wrt control: KB, 48 h
Experimental: as §7, §8, §9, §5, §6, §10

[7] = system: MDA-MB-231 Breast; experiment: Cytotoxic effect by MTT assay, 48 h; settings: read-out: IC50 Values; MDA-MB-231 Breast, after 48 h of treatment
Experimental: as §7, §8, §9, §5, §6, §10

[8] = system: MG-63 Bone; experiment: Cytotoxic effect by MTT assay, 48 h; settings: for Percent cytotoxicity wrt control: 48 h
Experimental: as §7, §8, §9, §5, §6, §10

[9] = system: T24 Bladder; experiment: Cytotoxic effect by MTT assay, 48 h; settings: 48 h
Experimental: as §7, §8, §9, §5, §6, §10

[10] = system: human urinary bladder cancer cell line (T-24); experiment: Cytotoxicity assay, cell titer glow luminescence, 72 h; format: cell-based; settings: 72 h
Experimental: as §1
(§11) 5,000 cells/well were plated and incubated at 37° C. overnight. Conjugates/vehicle control dilutions were made in respective media and added to cells. Volume added: 50 uL to each well. Starting treatment concentration was 1 uM for Conjugate of formula 16 and 18, and control SEQ ID NO: 5 alone and 10% for vehicle control (1×PBS with 20% DMA) and then diluted 10-fold down for a total of 11 treatment dilutions. Each concentration was analysed in triplicates. Media-only wells was used as a control to calculate percent viability. Cell titer glow reagent (volume: 50 uL) was added to each well, the plate was shaken for 5 mins and the luminescence was recorded. Drug Treatment Time: 72 hours. Percent viability was calculated by dividing the luminescence signal obtained for each treated well by the untreated well (media-only control) and multiplying by 100.

[11] = system: ovarian cancer cell line (PA-1); experiment: as above; format: cell-based; settings: 72 h
Experimental: as §1, §11

[12] = system: HT29 cells; experiment: MTT cytotoxicity assay, HT29 colon; format: cell-based; settings: Homo sapiens, HT-29
Experimental: as §3, §4, §5, §6

[13] = system: A549 Lungs; experiment: Cytotoxic effect by MTT assay, 48 h; settings: for Percent cytotoxicity wrt control: 48 h
Experimental: as §7, §8, §9, §5, §6, §10

[14] = system: AGS cells; experiment: MTT cytotoxicity assay, AGS stomach; format: cell-based; settings: Homo sapiens, 48 h
Experimental: as §3, §4, §5, §6

Compound: CC[C@H](C)[C@@H]([C@@H](CC(=O)N1CCC[C@H]1[C@H](OC)[C@@H](C)C(=O)N[C@H](C)[C@@H](O)c1ccccc1)OC)N(C)C(=O)[C@@H](NC(=O)[C@@H](NC)C(C)C)C(C)C [MMAE, monomethyl auristatin E] (H-[NMeV]V[Dil][Dolaproine]-X1)
- IC50 [1]: 0.24 nM
- IC50 [2]: 3.23 nM
- IC50 ([3]; PANC-1, 48 h): 1.5 nM
- cytotoxicity at 0.0001 µM ([3]; PANC-1, 0.0001 μm, 48 h, read-out: Percent cytotoxicity wrt control): 38.1%
- cytotoxicity at 0.001 µM ([3]; PANC-1, 0.001 μm, 48 h, read-out: Percent cytotoxicity wrt control): 41%
- cytotoxicity at 0.01 µM ([3]; PANC-1, 0.01 μm, 48 h, read-out: Percent cytotoxicity wrt control): 64.1%
- cytotoxicity at 0.1 µM ([3]; PANC-1, 0.1 μm, 48 h, read-out: Percent cytotoxicity wrt control): 67.7%
- cytotoxicity at 1 µM ([3]; PANC-1, 1 μm, 48 h, read-out: Percent cytotoxicity wrt control): 77.1%
- cytotoxicity at 10 µM ([3]; PANC-1, 10 μm, 48 h, read-out: Percent cytotoxicity wrt control): 69.7%
- cytotoxicity at 0.0001 µM ([4]; T24, 0.0001 μm, 48 h, read-out: Percent cytotoxicity wrt control): 51.8%
- cytotoxicity at 0.001 µM ([4]; T24, 0.001 μm, 48 h, read-out: Percent cytotoxicity wrt control): 51.1%
- cytotoxicity at 0.01 µM ([4]; T24, 0.01 μm, 48 h, read-out: Percent cytotoxicity wrt control): 46.1%
- cytotoxicity at 0.1 µM ([4]; T24, 0.1 μm, 48 h, read-out: Percent cytotoxicity wrt control): 44.4%
- cytotoxicity at 1 µM ([4]; T24, 1 μm, 48 h, read-out: Percent cytotoxicity wrt control): 44.4%
- cytotoxicity at 10 µM ([4]; T24, 10 μm, 48 h, read-out: Percent cytotoxicity wrt control): 53.2%
- IC50 ([4]; T24, 48 h): 0.01 nM
- Percent cytotoxicity wrt control ([5]; PA-1, 0.0001 μM): 13.4%
- Percent cytotoxicity wrt control ([5]; PA-1, 0.001 μM): 57.5%
- Percent cytotoxicity wrt control ([5]; PA-1, 0.01 μM): 50%
- Percent cytotoxicity wrt control ([5]; PA-1, 0.1 μM): 57.5%
- Percent cytotoxicity wrt control ([5]; PA-1, 1 μM): 61.7%
- Percent cytotoxicity wrt control ([5]; PA-1, 10 μM): 58.3%
- IC50 ([5]; read-out: IC50 Values, PA-1 Ovary, after 48 h of treatment): 30.1 nM
- Percent cytotoxicity wrt control ([6]; 0.0001 μM): 90.5%
- Percent cytotoxicity wrt control ([6]; 0.01 μM): 96.1%
- Percent cytotoxicity wrt control ([6]; 0.1 μM): 96.3%
- Percent cytotoxicity wrt control ([6]; 1 μM): 96.2%
- Percent cytotoxicity wrt control ([6]; 10 μM): 96.3%
- IC50 ([6]; read-out: IC50 Values, KB Cervix, after 48 h of treatment): ≤ 0.1 nM
- IC50 [7]: > 10000 nM
- Percent cytotoxicity wrt control ([8]; MG-63, 0.0001 μM): 81.7%
- Percent cytotoxicity wrt control ([8]; MG-63, 0.001 μM): 85.5%
- Percent cytotoxicity wrt control ([8]; MG-63, 0.01 μM): 86.2%
- Percent cytotoxicity wrt control ([8]; MG-63, 0.1 μM): 87.4%
- Percent cytotoxicity wrt control ([8]; MG-63, 1 μM): 85.3%
- Percent cytotoxicity wrt control ([8]; MG-63, 10 μM): 82.3%
- IC50 ([8]; read-out: IC50 Values, MG-63 Bone, after 48 h of treatment): ≤ 0.1 nM
- Percent cytotoxicity wrt control ([9]; T24, 0.0001 μM): 51.8%
- Percent cytotoxicity wrt control ([9]; T24, 0.001 μM): 51.1%
- Percent cytotoxicity wrt control ([9]; T24, 0.1 μM): 44.4%
- Percent cytotoxicity wrt control ([9]; T24, 1 μM): 44.4%
- IC50 [10]: 0.24 nM
- IC50 [11]: 3.23 nM
- cytotoxicity at 0.0001 µM ([12]; HT29, 0.0001 μm, 48 h, read-out: Percent cytotoxicity wrt control): 44.1%
- cytotoxicity at 0.001 µM ([12]; HT29, 0.001 μm, 48 h, read-out: Percent cytotoxicity wrt control): 44.6%
- cytotoxicity at 0.01 µM ([12]; HT29, 0.01 μm, 48 h, read-out: Percent cytotoxicity wrt control): 50.6%
- cytotoxicity at 0.1 µM ([12]; HT29, 0.1 μm, 48 h, read-out: Percent cytotoxicity wrt control): 50.4%
- cytotoxicity at 1 µM ([12]; HT29, 1 μm, 48 h, read-out: Percent cytotoxicity wrt control): 51.9%
- cytotoxicity at 10 µM ([12]; HT29, 10 μm, 48 h, read-out: Percent cytotoxicity wrt control): 55.9%
- IC50 ([12]; HT29, 48 h): 50 nM
- Percent cytotoxicity wrt control ([13]; A549, 0.0001 μM): 27.9%
- Percent cytotoxicity wrt control ([13]; A549, 0.001 μM): 39.3%
- Percent cytotoxicity wrt control ([13]; A549, 0.1 μM): 58.8%
- Percent cytotoxicity wrt control ([13]; A549, 1 μM): 83.6%
- Percent cytotoxicity wrt control ([13]; A549, 10 μM): 75.8%
- IC50 ([13]; read-out: IC50 Values, A549 Lungs, after 48 h of treatment): 10 nM
- cytotoxicity at 0.0001 µM ([14]; 0.0001 μm, read-out: Percent cytotoxicity wrt control): 30.9%
- cytotoxicity at 0.001 µM ([14]; 0.001 μm, read-out: Percent cytotoxicity wrt control): 31.7%
- cytotoxicity at 0.01 µM ([14]; 0.01 μm, read-out: Percent cytotoxicity wrt control): 32.6%
- cytotoxicity at 0.1 µM ([14]; 0.1 μm, read-out: Percent cytotoxicity wrt control): 48.2%
- cytotoxicity at 1 µM ([14]; 1 μm, read-out: Percent cytotoxicity wrt control): 48.4%
- cytotoxicity at 10 µM ([14]; 10 μm, read-out: Percent cytotoxicity wrt control): 54.4%
- IC50 [14]: 1540 nM
